Laboratory results: patent US20060154895A1, “Method of treating acquired immunedeficiency syndrome” (priority 2004, published 2006)

How the values were obtained:
T-cells = assay: Blood T-cell levels after curdlan sulfate alone in HIV infected patients; type: in vivo, human; conditions: curdlan sulfate administered by itself to HIV infected patients
Excerpt: The present invention provides a treatment method for HIV infections that is designed to completely eradicate the HIV virus. […] The reappearance of HIV virus in the blood after the interruption of current therapies makes it likely that the HIV virus is capable of being retained in some biological reservoir where current therapies are unable to create an environment that inhibits or destroys the HIV virus. […] The large increase in T-cells is believed to be due to a release or flushing of T-cells from a biological repository or storage site rather than a biological production of new T-cells. This phenomenon has caused the applicants to theorize that the repository or storage site for the T-cells is also a sanctuary for the HIV virus which appears to have an ability to shield itself from the effects of anti-HIV drugs which are circulated in the blood to all of the bodies organs. The invention is directed to the administration of an entry/fusion inhibitor after a HAART drug combination has been administered in an effective amount for a sufficient time to cause the HIV cells to been eradicated from the blood stream. Thereafter, the entry/fusion inhibitor is administered in an effective amount for a sufficient period of time to eradicate the HIV cells.

[1] = Tolerance screening: daily IV dose escalation of curdlan sulfate until APTT is doubled (MTD); type: in vivo, human; conditions: IV infusion, HIV positive patients
Procedure: Patients are selected for treatment with the method of the invention based on the fact that they have previously tested positive for HIV and presently have some detectable level of HIV. Initially, the patients are screened for the effect of curdlan sulfate on coagulation times by measuring the time to coagulation using the activated partial thromboplastin time test (APTT) after IV infusion of 50 mg of curdlan sulfate in over a period of 30 minutes. A test dose of […] of curdlan sulfate is given on the first day and each day thereafter, the dose of curdlan sulfate is increased in 50 mg increments until the APTT is doubled. […] When the MTD is determined for each patient, the MTD is repeated daily for 21 days while the particular dosage regimen of the HAART drugs is continued. After the 21 days of curdlan sulfate therapy is completed, the HAART treatment regimen is also suspended and the viral load is determined daily. If there is no measurable viral load after this treatment, the treatment is deemed to be successful. If the viral load returns to measurable levels for three days, the HAART therapy may be reinstituted followed by another sequence of curdlan sulfate therapy.

Substance: curdlan sulfate
- detectable blood levels of T-cells (T-cells): large increases in detectable bloods levels of T-cells
- bleeding at the MTD [1]: no bleeding at the site of injection or elsewhere is detected
